Assay results taken from the kinase profiling compilation of Christmann-Franck et al. (2016).

How the values were obtained:
Test in all cases: radiometric filter-binding kinase assay, Kinase HotSpot
Conditions in all cases: compound 0.5 µM; ATP 10 µM
[1] = target: CDK9 CCNT1 (human) (UniProt P50750+O60563)
[2] = target: GRK6 (human) (UniProt P43250)
[3] = target: PRKD3 (human) (UniProt O94806)
[4] = target: CSNK1G1 (human) (UniProt Q9HCP0)
[5] = target: BRSK1 (human) (UniProt Q8TDC3)
[6] = target: FES (human) (UniProt P07332)
[7] = target: IGF1R (human) (UniProt P08069)
[8] = target: TNK2 (human) (UniProt Q07912)
Sequence of TNK2 (human) (Q07912 whole entry, looked up): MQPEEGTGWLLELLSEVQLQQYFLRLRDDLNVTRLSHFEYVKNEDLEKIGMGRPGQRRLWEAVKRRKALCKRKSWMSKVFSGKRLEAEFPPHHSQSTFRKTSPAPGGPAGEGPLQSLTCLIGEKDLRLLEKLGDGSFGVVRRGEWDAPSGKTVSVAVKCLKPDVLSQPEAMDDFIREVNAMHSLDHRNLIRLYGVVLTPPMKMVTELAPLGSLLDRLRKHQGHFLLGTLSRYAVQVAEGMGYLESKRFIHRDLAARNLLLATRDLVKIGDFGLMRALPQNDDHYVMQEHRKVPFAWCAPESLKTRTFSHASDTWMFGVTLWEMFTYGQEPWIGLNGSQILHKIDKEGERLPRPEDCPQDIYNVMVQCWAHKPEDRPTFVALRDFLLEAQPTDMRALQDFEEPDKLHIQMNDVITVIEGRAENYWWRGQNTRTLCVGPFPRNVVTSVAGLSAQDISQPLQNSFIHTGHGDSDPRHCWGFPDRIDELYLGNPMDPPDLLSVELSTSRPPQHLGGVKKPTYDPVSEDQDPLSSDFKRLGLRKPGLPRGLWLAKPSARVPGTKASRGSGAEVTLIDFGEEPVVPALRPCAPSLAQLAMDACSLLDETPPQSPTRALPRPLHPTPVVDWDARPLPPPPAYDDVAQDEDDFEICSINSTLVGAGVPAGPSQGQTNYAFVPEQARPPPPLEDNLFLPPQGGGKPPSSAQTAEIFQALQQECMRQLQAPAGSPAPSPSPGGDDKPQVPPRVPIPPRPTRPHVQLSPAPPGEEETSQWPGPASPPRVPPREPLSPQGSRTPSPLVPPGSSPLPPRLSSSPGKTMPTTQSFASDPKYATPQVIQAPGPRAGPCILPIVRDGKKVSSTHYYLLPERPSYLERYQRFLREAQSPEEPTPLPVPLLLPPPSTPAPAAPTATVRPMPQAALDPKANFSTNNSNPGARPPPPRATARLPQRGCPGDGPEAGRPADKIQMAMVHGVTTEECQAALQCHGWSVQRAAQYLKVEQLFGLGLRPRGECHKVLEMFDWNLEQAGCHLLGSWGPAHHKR

[9] = target: NEK6 (human) (UniProt Q9HC98)
[10] = target: RPS6KA3 KD1 KD2 (human) (UniProt P51812)
[11] = target: FGFR1 (human) (UniProt P11362)
[12] = target: TSSK1B (human) (UniProt Q9BXA7)
Sequence of TSSK1B (human) (Q9BXA7 whole entry, looked up): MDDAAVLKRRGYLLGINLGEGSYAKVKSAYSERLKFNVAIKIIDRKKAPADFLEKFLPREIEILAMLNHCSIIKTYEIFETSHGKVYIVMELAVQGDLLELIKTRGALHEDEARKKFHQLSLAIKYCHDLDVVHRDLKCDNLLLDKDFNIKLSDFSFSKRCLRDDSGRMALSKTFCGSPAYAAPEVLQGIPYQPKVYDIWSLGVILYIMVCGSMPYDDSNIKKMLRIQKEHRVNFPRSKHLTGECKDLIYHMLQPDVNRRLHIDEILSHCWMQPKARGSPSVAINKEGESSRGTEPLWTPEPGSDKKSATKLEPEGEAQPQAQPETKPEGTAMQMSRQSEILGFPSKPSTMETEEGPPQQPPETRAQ

[13] = target: STK4 (human) (UniProt Q13043)
[14] = target: STK17A (human) (UniProt Q9UEE5)
[15] = target: NEK3 (human) (UniProt P51956)
[16] = target: MAP3K11 (human) (UniProt Q16584)
[17] = target: SIK2 (human) (UniProt Q9H0K1)
[18] = target: PIM2 (human) (UniProt Q9P1W9)
[19] = target: TAOK2 (human) (UniProt Q9UL54)
[20] = target: MAPK13 (human) (UniProt O15264)
Sequence of MAPK13 (human) (O15264 whole entry, looked up): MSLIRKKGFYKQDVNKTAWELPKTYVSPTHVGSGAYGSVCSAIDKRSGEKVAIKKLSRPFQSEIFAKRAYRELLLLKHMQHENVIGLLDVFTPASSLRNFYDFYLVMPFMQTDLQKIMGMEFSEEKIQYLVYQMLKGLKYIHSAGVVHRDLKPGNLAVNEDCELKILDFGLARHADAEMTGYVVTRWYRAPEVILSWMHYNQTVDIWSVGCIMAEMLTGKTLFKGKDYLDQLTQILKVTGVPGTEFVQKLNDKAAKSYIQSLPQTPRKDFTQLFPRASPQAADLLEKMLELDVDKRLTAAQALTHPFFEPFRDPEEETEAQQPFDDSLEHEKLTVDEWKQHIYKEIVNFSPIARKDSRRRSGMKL

[21] = target: WEE1 (human) (UniProt P30291)
[22] = target: LTK (human) (UniProt P29376)
[23] = target: CDK6 CCND1 (human) (UniProt Q00534+P24385)
[24] = target: GSG2 (human) (UniProt Q8TF76)
[25] = target: CDK5 CDK5R1 p35 (human) (UniProt Q00535+Q15078)
[26] = target: AKT2 (human) (UniProt P31751)
[27] = target: STK25 (human) (UniProt O00506)
[28] = target: ULK2 (human) (UniProt Q8IYT8)
[29] = target: MAP2K2 (human) (UniProt P36507)
[30] = target: MST1R (human) (UniProt Q04912)
[31] = target: ALK (human) (UniProt Q9UM73)
[32] = target: NTRK2 (human) (UniProt Q16620)
[33] = target: PKN2 (human) (UniProt Q16513)
[34] = target: STK16 (human) (UniProt O75716)
[35] = target: VRK1 (human) (UniProt Q99986)
Sequence of VRK1 (human) (Q99986 whole entry, looked up): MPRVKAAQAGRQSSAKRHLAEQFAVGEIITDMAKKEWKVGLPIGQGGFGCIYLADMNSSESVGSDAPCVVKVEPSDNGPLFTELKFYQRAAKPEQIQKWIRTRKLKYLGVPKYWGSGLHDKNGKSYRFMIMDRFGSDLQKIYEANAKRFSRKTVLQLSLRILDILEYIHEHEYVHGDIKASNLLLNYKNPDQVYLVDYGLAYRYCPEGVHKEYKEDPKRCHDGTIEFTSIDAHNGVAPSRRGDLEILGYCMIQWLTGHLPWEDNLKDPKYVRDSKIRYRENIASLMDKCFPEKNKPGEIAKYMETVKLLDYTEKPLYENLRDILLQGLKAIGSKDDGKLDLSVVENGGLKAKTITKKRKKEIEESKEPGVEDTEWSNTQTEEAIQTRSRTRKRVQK

[36] = target: PRKCA (human) (UniProt P17252)
[37] = test system: FLT4 (human), P35916 [Q890H]
[38] = target: PIM3 (human) (UniProt Q86V86)
[39] = target: STK33 (human) (UniProt Q9BYT3)
[40] = target: GSK3A (human) (UniProt P49840)
[41] = target: MAP2K1 (human) (UniProt Q02750)
[42] = target: RPS6KA5 KD2 (human) (UniProt O75582)

Sequence of PRKD3 (human) (O94806 whole entry, looked up): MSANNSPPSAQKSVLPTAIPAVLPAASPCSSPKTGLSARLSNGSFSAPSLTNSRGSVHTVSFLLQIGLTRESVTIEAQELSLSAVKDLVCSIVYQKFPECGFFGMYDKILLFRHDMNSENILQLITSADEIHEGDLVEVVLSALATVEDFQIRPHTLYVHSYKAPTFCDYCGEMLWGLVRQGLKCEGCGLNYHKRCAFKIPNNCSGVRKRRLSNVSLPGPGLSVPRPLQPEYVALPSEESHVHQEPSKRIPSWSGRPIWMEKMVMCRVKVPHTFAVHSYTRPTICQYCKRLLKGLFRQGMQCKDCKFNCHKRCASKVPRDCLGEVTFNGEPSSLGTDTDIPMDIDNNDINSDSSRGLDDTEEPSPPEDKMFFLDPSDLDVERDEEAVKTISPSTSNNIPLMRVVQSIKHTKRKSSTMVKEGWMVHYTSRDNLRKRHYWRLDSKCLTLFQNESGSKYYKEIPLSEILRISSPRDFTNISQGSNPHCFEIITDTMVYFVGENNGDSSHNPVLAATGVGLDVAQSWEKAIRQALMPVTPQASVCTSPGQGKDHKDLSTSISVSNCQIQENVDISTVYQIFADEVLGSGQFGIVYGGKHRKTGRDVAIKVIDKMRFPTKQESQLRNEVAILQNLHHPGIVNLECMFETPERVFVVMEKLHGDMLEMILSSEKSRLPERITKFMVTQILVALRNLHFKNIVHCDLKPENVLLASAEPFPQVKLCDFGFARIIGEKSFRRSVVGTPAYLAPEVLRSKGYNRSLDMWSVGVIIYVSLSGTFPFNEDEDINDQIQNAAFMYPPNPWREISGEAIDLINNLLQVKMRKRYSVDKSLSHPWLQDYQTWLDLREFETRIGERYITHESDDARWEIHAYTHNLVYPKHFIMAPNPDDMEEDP
Sequence of CDK9 CCNT1 (human) (O60563 whole entry, looked up): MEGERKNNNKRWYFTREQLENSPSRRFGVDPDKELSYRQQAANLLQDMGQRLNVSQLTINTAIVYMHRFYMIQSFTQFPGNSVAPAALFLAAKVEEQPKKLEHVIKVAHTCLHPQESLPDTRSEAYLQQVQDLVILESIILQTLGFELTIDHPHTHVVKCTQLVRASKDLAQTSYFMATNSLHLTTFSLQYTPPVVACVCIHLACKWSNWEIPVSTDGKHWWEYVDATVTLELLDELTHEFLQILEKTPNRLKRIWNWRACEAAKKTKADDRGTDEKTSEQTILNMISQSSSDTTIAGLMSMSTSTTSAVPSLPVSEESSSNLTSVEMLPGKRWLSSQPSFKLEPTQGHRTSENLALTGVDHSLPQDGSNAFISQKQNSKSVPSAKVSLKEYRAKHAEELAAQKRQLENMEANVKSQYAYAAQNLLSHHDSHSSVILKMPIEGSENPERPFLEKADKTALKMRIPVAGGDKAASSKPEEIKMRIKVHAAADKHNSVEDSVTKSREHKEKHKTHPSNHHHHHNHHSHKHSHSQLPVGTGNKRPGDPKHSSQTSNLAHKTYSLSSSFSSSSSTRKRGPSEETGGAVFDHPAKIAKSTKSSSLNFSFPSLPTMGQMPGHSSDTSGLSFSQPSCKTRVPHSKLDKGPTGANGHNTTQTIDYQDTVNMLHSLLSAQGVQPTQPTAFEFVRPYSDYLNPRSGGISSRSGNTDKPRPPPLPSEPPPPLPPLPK
Sequence of CDK9 CCNT1 (human) (P50750 whole entry, looked up): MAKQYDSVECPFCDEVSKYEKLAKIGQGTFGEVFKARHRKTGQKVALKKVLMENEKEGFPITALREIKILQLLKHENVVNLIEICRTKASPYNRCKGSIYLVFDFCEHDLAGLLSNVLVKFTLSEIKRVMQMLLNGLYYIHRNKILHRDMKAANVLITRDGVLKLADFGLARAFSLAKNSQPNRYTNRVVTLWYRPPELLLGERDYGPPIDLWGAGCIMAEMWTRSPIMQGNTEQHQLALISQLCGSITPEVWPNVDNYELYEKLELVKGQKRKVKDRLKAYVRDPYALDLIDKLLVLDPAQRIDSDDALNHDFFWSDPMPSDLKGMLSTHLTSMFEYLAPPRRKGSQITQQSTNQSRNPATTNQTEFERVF
Sequence of CSNK1G1 (human) (Q9HCP0 whole entry, looked up): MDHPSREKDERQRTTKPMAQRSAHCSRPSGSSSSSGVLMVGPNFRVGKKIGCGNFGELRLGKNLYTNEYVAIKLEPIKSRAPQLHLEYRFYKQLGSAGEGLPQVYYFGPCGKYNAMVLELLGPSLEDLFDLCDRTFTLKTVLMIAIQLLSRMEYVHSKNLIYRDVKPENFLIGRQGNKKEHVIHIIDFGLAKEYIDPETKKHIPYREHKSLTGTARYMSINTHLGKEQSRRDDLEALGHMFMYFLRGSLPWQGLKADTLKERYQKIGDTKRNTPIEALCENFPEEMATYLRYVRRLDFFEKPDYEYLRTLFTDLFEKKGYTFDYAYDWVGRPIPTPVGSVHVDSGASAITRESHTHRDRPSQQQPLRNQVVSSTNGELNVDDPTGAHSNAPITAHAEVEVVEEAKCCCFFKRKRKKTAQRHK

SMILES: Cc1cccc(-c2nc(C(C)(C)C)[nH]c2-c2ccc3c(c2)OCO3)n1
- residual activity [1]: 88.5%
- residual activity [2]: 101%
- residual activity [3]: 89.3%
- residual activity [4]: 79.4%
- residual activity [5]: 101%
- residual activity [6]: 108%
- residual activity [7]: 96.2%
- residual activity [8]: 99.3%
- residual activity [9]: 109%
- residual activity [10]: 82.4%
- residual activity [11]: 90.8%
- residual activity [12]: 103%
- residual activity [13]: 98.7%
- residual activity [14]: 84.1%
- residual activity [15]: 85.6%
- residual activity [16]: 96.2%
- residual activity [17]: 91.4%
- residual activity [18]: 99.7%
- residual activity [19]: 87.6%
- residual activity [20]: 107%
- residual activity [21]: 81.5%
- residual activity [22]: 99.2%
- residual activity [23]: 95.2%
- residual activity [24]: 78.7%
- residual activity [25]: 98.5%
- residual activity [26]: 80.1%
- residual activity [27]: 104%
- residual activity [28]: 75.4%
- residual activity [29]: 108%
- residual activity [30]: 101%
- residual activity [31]: 103%
- residual activity [32]: 96.4%
- residual activity [33]: 93.5%
- residual activity [34]: 90.1%
- residual activity [35]: 97.5%
- residual activity [36]: 99.6%
- residual activity [37]: 99.8%
- residual activity [38]: 106%
- residual activity [39]: 89%
- residual activity [40]: 93%
- residual activity [41]: 93.3%
- residual activity [42]: 97.5%

SMILES: COc1ccc(S(=O)(=O)N(CCO)c2ccccc2CN(C)C/C=C/c2ccc(Cl)cc2)cc1
- residual activity [1]: 103%
- residual activity [2]: 106%
- residual activity [3]: 97.1%
- residual activity [4]: 105%
- residual activity [5]: 98.4%
- residual activity [6]: 96.3%
- residual activity [7]: 103%
- residual activity [8]: 94.1%
- residual activity [9]: 103%
- residual activity [10]: 98%
- residual activity [11]: 99.5%
- residual activity [12]: 103%
- residual activity [13]: 94.2%
- residual activity [14]: 102%
- residual activity [15]: 96.2%
- residual activity [16]: 99.3%
- residual activity [17]: 97.4%
- residual activity [18]: 99.7%
- residual activity [19]: 90.9%
- residual activity [20]: 102%
- residual activity [21]: 96%
- residual activity [22]: 97.9%
- residual activity [23]: 92.7%
- residual activity [24]: 95.3%
- residual activity [25]: 99.9%
- residual activity [26]: 106%
- residual activity [27]: 99.6%
- residual activity [28]: 102%
- residual activity [29]: 100%
- residual activity [30]: 95.4%
- residual activity [31]: 98.1%
- residual activity [32]: 104%
- residual activity [33]: 101%
- residual activity [34]: 102%
- residual activity [35]: 96.4%
- residual activity [36]: 98.2%
- residual activity [37]: 91%
- residual activity [38]: 105%
- residual activity [39]: 97.3%
- residual activity [40]: 99.9%
- residual activity [41]: 94.3%
- residual activity [42]: 103%
